Assay results reported in patent publication US20140288056A1, “METHODS FOR NON-TOXIC TREATMENT FOR DRUG WITHDRAWAL” (DEMERX, INC., priority 2013, published 2014).

Legend:
Sprague-Dawley rats = assay: Fourteen day repeat dose toxicity in rats, oral gavage; type: in vivo, rat
Description: This study was conducted to evaluate the toxicity profile of noribogaine-HCl following oral (gavage) administration to the rat for 14 days following Table 2 below:
Male and female Sprague-Dawley rats, 10/sex/group, were administered 0, 25, 50 or 100 mg/kg noribogaine HCl daily by single oral gavage for 14 days. An additional 5 rats/sex/group in the 0 (control) and 100 mg/kg groups were retained for a 28 day recovery period during which no drug was administered. Six rats/sex/group (3 rats/sex controls) were similarly dosed and sampled on study days 1 and 14 for analysis of noribogaine-HCl concentrations in the blood.

dogs [1] = assay: Fourteen day repeat dose toxicity in dogs, oral gavage; type: in vivo, dog
Description: The objective of this study was to determine the toxicity profile of noribogaine HCl given following oral (gavage) administration to dogs for 14 days according to the following Table 3 below:
(§1) Noribogaine HCl was administered to groups of 4 male and 4 female dogs by single oral gavage daily for 14 days at doses of 0, 0.5, 1.0 and 5.0 mg/kg/day. An additional group of 4 male and 4 female dogs received either the vehicle control or 5.0 mg/kg/day for 14 days and were held for an additional 28 days after cessation of dosing to assess recovery from any potential drug-induced changes. The study was conducted under GLP guidelines and included comprehensive examinations of clinical signs, body weight, clinical pathology parameters, ophthalmologic examinations, ECG recordings and analyses of plasma for bioanalytical measurement of drug levels at appropriate intervals during the study. At the termination of the dosing phase and at the termination of the recovery phase, all dogs were subjected to a complete post-mortem examination including gross examination of major organs and histologic examination of an extensive list of tissues. Additional sections of brain were obtained from cerebrum, cerebellus, brain stem and spinal cord and examined histologically to evaluate potential effects on brain histopathology. In addition, these sections were examined with immunohistochemical stains for GFAP for evidence of gliosis and Calbindin for a more comprehensive examination of cerebellar Purkinje cells.
The only target tissue identified in this study was the lacrimal gland of dogs receiving 5 mg/kg/day. […] There was an associated mononuclear infiltration in the draining mandibular lymph nodes of affected dogs in this dose group. […] There was no clear evidence of local irritation associated with drug treatment in these high dose dogs. […] While slight atrophy was still evident in the acinar cells of the gland after 28 days off drug, no evidence of continuing and ongoing degeneration or cellular infiltration was observed. The NOAEL in this study was 1 mg/kg/day based on the lacrimal gland changes at 5 mg/kg/day.

[2] = Plasma toxicokinetics in dogs, 14 day repeat dose study; type: in vivo, dog
Description: as §1

[3] = Human pharmacokinetic study, single oral dose, fasting healthy volunteers; type: in vivo; settings: for mean AUC/24 hr / mean Cmax / mean AUC/24: fasting, serum
Description: In double blind studies, fasting healthy volunteers (6 per cohort) were treated once orally with a tablet of noribogaine HCl. In escalating cohorts, the volunteers received 3 mg, 10 mg, 30 mg or 60 mg noribogaine.

Sprague-Dawley rat = assay: Single dose toxicity in rats, oral gavage; type: in vivo
Description: The objective of this study was to determine the toxicity and toxicokinetic profile of noribogaine HCl following a single oral (gavage) administration in the Sprague-Dawley rat. A single dose of 100, 300 and 800 mg/kg (achieved with doses of 400 mg/kg 3 h +/−30 min apart because of the limitations of maximum dose formulation concentration). Five male rats/group were used. […] Hypoactivity, vocalization, chewing movements, changes in respiration/posture, salivation, stimuli sensitivity, tremors, twitches and penile erection occurred prior to death. […] The NOAEL was determined to be 100 mg/kg.

cynomolgus monkey = assay: Single dose toxicity in cynomolgus monkeys, oral gavage; type: in vivo
Description: The objective of the study was to determine the toxicity and toxicokinetic profile of noribogaine following oral (gavage) administration to the cynomolgus monkey. The test article was administered as follows in Table 1:
Parameters monitored on the study included: mortality, clinical signs and body weights. Blood samples were collected for TK evaluation. […] The single dose maximum tolerated dose (MTD) was determined to be greater than 160 mg/kg based on the parameters monitored during the study.

various animal species = assay: Pre-clinical toxicity studies in various animal species; type: in vivo
From the text: Given the signs of efficacy that noribogaine has shown, there is a need for a method to administer noribogaine in dosages that provide efficacy without leading to any significant deleterious clinical signs.

drug-seeking behavior = assay: Animal studies in various addiction models; type: in vivo
psychotomimetic effects = assay: Evaluation of psychotomimetic effects in an animal model; type: in vivo
dogs [4] = assay: Acute oral toxicity/TK study in dogs; type: in vivo, dog
[5] = female dogs, Gr 2 0.5 mg/kg, D 1
[6] = female dogs, Gr 2 0.5 mg/kg, D 14
[7] = female dogs, Gr 3 1.0 mg/kg, D 1
[8] = female dogs, Gr 3 1.0 mg/kg, D 14
[9] = female dogs, Gr 4 5.0 mg/kg, D 1
[10] = female dogs, Gr 4 5.0 mg/kg, D 14
[11] = male dogs, Gr 2 0.5 mg/kg, D 14
[12] = male dogs, Gr 3 1.0 mg/kg, D 14
[13] = male dogs, Gr 4 5.0 mg/kg, D 14

SMILES: CC[C@@H]1C[C@H]2CC3c4[nH]c5ccc(O)cc5c4CCN(C2)C31.Cl [noribogaine HCl]
- Body weight change (Sprague-Dawley rats; 100 mg/kg high dose, females): −2.6%
- Body weight change (Sprague-Dawley rats; 100 mg/kg high dose, males): −5.5%
- Food consumption change (Sprague-Dawley rats; 100 mg/kg high dose, males and females): −4.7%
- Test article-related effects on mortality, clinical signs, ophthalmoscopy, hematology, coagulation parameters, clinical chemistry, urinalysis, gross necropsy or histopathology (Sprague-Dawley rats; 25, 50 or 100 mg/kg daily for 14 days): no test article-related effects
- Differences in the brain in sections stained for GFAP or Calbindin (Sprague-Dawley rats; 14 days oral): No treatment-related differences
- NOAEL (Sprague-Dawley rats; 14 days oral, highest dose tested): 100 mg/kg
- Liver weight (Sprague-Dawley rats; mid- and high dose groups (50 and 100 mg/kg), considered incidental): Minor increases
- Lacrimal gland changes (dogs [1]; 5 mg/kg/day for 14 days): slight to moderate atrophy and degeneration of the acinar cells
- Lacrimal gland change in recovery group (dogs [1]; 5 mg/kg/day, 28 days off drug): clear evidence of regeneration
- Adverse effect in clinical observations, body weights, clinical pathological parameters, ophthalmologic examinations, ECG recordings, or gross lesions at necropsy (dogs [1]; 0.5, 1.0 and 5.0 mg/kg/day for 14 days, dosing or recovery phase): No evidence of adverse effect
- Drug-induced effect in any other tissue including brain (histopathology, immunohistochemistry) (dogs [1]; 14 days oral): No evidence of drug-induced effect
- NOAEL (dogs [1]; 14 days oral, based on lacrimal gland changes at 5 mg/kg/day): 1 mg/kg/day
- Plasma level at 24 h post-dosing ([2]; Group 4 (5.0 mg/kg), male and female dogs, Days 1 and 14): significant levels of noribogaine were still detected
- Adverse effects ([3]; 3, 10, 30 or 60 mg single oral tablet): no clinically relevant adverse effects were observed
- Dose linearity of parameters ([3]; 3 to 60 mg single oral dose): linear
- Treatment related signs (Sprague-Dawley rat; 100 mg/kg): did not show any treatment related signs
- Rats with hypoactivity, vocalization, salivation, stimuli sensitivity, loss of limb function and lying on the cage floor (Sprague-Dawley rat; 300 mg/kg, day of treatment, persisted until Day 2): 3/5
- Mortality (Sprague-Dawley rat; 800 mg/kg (two doses of 400 mg/kg 3 h apart), single oral gavage, male rats): Mortality occurred in all male rats
- Time of mortality after administration of the second dose (Sprague-Dawley rat; 800 mg/kg group, after second dose of 400 mg/kg): 2 to 3 h
- NOAEL (Sprague-Dawley rat; single oral dose, male rats): 100 mg/kg

SMILES: CC[C@H]1C[C@H]2C[C@H]3c4[nH]c5ccc(O)cc5c4CCN(C2)[C@@H]13 [noribogaine]
- Single dose maximum tolerated dose (MTD) (cynomolgus monkey): greater than 160 mg/kg
- Mortality or treatment related clinical signs (cynomolgus monkey; doses up to and including 160 mg/kg): No mortality or treatment related clinical signs were noted
- Toxic effects of high doses (various animal species): convulsions and other CNS-related clinical signs, respiratory arrest and death
- Drug-seeking behavior (drug-seeking behavior): significantly reduced
- Psychotomimetic effects (psychotomimetic effects): no activity
- Findings at the NOAEL dose (dogs [4]; 5 mg/kg oral): only transient reduction in food consumption in one dog
- Convulsions and other CNS-related clinical signs (dogs [4]; 10 mg/kg oral): occurred
- Onset of convulsions and CNS-related clinical signs after dosing (dogs [4]; 10 mg/kg oral): 20 min
- Mortality (dogs [4]; 5 (n=2) or 10 (n=2) mg/kg oral): no mortality occurred
- NOAEL (dogs [4]; single oral dose): 5 mg/kg
- AUC0-24 h [2, 5]: 40.4 ng·h/mL
- AUC0-last [2, 5]: 31.5 ng·h/mL
- AUC0-∞ [2, 5]: 44.9 ng·h/mL
- Cmax [2, 5]: 25.3 ng/mL
- T1/2 [2, 5]: 1.0 h
- Tmax [2, 5]: 0.5 h
- AUC0-24 h [2, 6]: 55.0 ng·h/mL
- AUC0-last [2, 6]: 35.4 ng·h/mL
- AUC0-∞ [2, 6]: 45.7 ng·h/mL
- Cmax [2, 6]: 29.8 ng/mL
- T1/2 [2, 6]: 1.1 h
- Tmax [2, 6]: 1.0 h
- AUC0-24 h [2, 7]: 176.2 ng·h/mL
- AUC0-last [2, 7]: 148.9 ng·h/mL
- AUC0-∞ [2, 7]: 165.3 ng·h/mL
- Cmax [2, 7]: 68.5 ng/mL
- T1/2 [2, 7]: 1.4 h
- Tmax [2, 7]: 0.8 h
- AUC0-24 h [2, 8]: 203.7 ng·h/mL
- AUC0-last [2, 8]: 169.0 ng·h/mL
- AUC0-∞ [2, 8]: 197.0 ng·h/mL
- Cmax [2, 8]: 74.1 ng/mL
- T1/2 [2, 8]: 1.6 h
- Tmax [2, 8]: 0.5 h
- AUC0-24 h [2, 9]: 3367.9 ng·h/mL
- AUC0-last [2, 9]: 3367.9 ng·h/mL
- AUC0-∞ [2, 9]: 3425.7 ng·h/mL
- Cmax [2, 9]: 691 ng/mL
- T1/2 [2, 9]: 4.3 h
- Tmax [2, 9]: 0.6 h
- AUC0-24 h [2, 10]: 5951.2 ng·h/mL
- AUC0-last [2, 10]: 5951.2 ng·h/mL
- AUC0-∞ [2, 10]: 6283.2 ng·h/mL
- Cmax [2, 10]: 683 ng/mL
- T1/2 [2, 10]: 5.7 h
- Tmax [2, 10]: 0.6 h
- AUC0-24 h ([2]; male dogs, Gr 2 0.5 mg/kg, D 1): 59.7 ng·h/mL
- AUC0-last ([2]; male dogs, Gr 2 0.5 mg/kg, D 1): 46.6 ng·h/mL
- AUC0-∞ ([2]; male dogs, Gr 2 0.5 mg/kg, D 1): 67.8 ng·h/mL
- Cmax ([2]; male dogs, Gr 2 0.5 mg/kg, D 1): 28.8 ng/mL
- T1/2 ([2]; male dogs, Gr 2 0.5 mg/kg, D 1): 1.3 h
- Tmax ([2]; male dogs, Gr 2 0.5 mg/kg, D 1): 0.7 h
- AUC0-24 h [2, 11]: 64.5 ng·h/mL
- AUC0-last [2, 11]: 53.2 ng·h/mL
- AUC0-∞ [2, 11]: 68.2 ng·h/mL
- Cmax [2, 11]: 29.4 ng/mL
- T1/2 [2, 11]: 1.3 h
- Tmax [2, 11]: 0.7 h
- AUC0-24 h ([2]; male dogs, Gr 3 1.0 mg/kg, D 1): 119.8 ng·h/mL
- AUC0-last ([2]; male dogs, Gr 3 1.0 mg/kg, D 1): 102.5 ng·h/mL
- AUC0-∞ ([2]; male dogs, Gr 3 1.0 mg/kg, D 1): 120.8 ng·h/mL
- Cmax ([2]; male dogs, Gr 3 1.0 mg/kg, D 1): 58.6 ng/mL
- T1/2 ([2]; male dogs, Gr 3 1.0 mg/kg, D 1): 1.2 h
- Tmax ([2]; male dogs, Gr 3 1.0 mg/kg, D 1): 0.9 h
- AUC0-24 h [2, 12]: 210.4 ng·h/mL
- AUC0-last [2, 12]: 172.3 ng·h/mL
- AUC0-∞ [2, 12]: 195.7 ng·h/mL
- Cmax [2, 12]: 67.6 ng/mL
- T1/2 [2, 12]: 1.8 h
- Tmax [2, 12]: 0.8 h
- AUC0-24 h ([2]; male dogs, Gr 4 5.0 mg/kg, D 1): 3515.0 ng·h/mL
- AUC0-last ([2]; male dogs, Gr 4 5.0 mg/kg, D 1): 3515.0 ng·h/mL
- AUC0-∞ ([2]; male dogs, Gr 4 5.0 mg/kg, D 1): 3630.5 ng·h/mL
- Cmax ([2]; male dogs, Gr 4 5.0 mg/kg, D 1): 693 ng/mL
- T1/2 ([2]; male dogs, Gr 4 5.0 mg/kg, D 1): 4.7 h
- Tmax ([2]; male dogs, Gr 4 5.0 mg/kg, D 1): 0.6 h
- AUC0-24 h [2, 13]: 6403.3 ng·h/mL
- AUC0-last [2, 13]: 6403.3 ng·h/mL
- AUC0-∞ [2, 13]: 6961.4 ng·h/mL
- Cmax [2, 13]: 716 ng/mL
- T1/2 [2, 13]: 6.5 h
- Tmax [2, 13]: 0.9 h
- mean AUC/24 hr ([3]; single dose 3 mg): 3.1 ng/mL
- mean Cmax ([3]; single dose 3 mg): 5.2 ng/mL
- mean AUC/24 hr ([3]; single dose 10 mg): 10.6 ng/mL
- mean Cmax ([3]; single dose 10 mg): 14.5 ng/mL
- mean AUC/24 ([3]; single dose 30 mg): 29.2 ng/mL
- mean Cmax ([3]; single dose 30 mg): 55.9 ng/mL
- mean AUC/24 ([3]; single dose 60 mg): 61 ng/mL
- mean Cmax ([3]; single dose 60 mg): 116 ng/mL
